Assay results reported in US20240417410A1, “TRICYCLIC COMPOUNDS FOR THE TREATMENT OF CANCER” (Hoffmann-La Roche Inc., priority 2023, published 2024).
pIC50: −log10 of the molar value. Read-outs that look alike come from different tables or passages of the source.

Tests used:
human hepatocytes = test: Human hepatocyte stability assay; format: in vitro ADME; settings: 1 μM compound, human hepatocytes 1×10^6 cells/mL
Method: The hepatocyte stability assay measures the rate of disappearance of a compound from incubations with cryopreserved suspension hepatocytes from human. Positive controls, including Midazolam, Raloxifene and Dextromethorphan, are included in every experiment. Incubations consist of 1 μM tested compound and suspension of human hepatocytes (1×10^6 cells/mL) in supplemented Williams' E Medium with 10% FBS and 0.5% Penicillin-streptomycin. The hepatocyte suspension was incubated with intermittent shaking 900 rpm at 37° C., in a 5% CO2 incubator. The reaction was stopped by adding methanol containing internal standard (2 μM Tolbutamide) at 2, 10, 20, 40, 60 and 120 minutes after compound addition, depletion of the parent compound was monitored by LC-MS/MS analysis.

DUSP6 = test: SHP-77 xenograft single-dose PK/PD study, tumor DUSP6 levels; format: in vivo, mouse; settings: single oral dose of 30 mg/kg
Source text: (§1) The purpose of the study was to assess the anti-tumor activity in difficult KRAS mutated xenograft tumor model using SHP-77 (small cell lung cancer, SCLC; ATCC CRL-2195) by examining the time-dependent effects on MAPK pathway modulation and tumor suppression post-administration of Example 24 and reference compound A122.
(§2) Female CB17-SCID mice at 6-8 weeks old from Vital River Co., LTD. were used for these studies. In order to generate subcutaneous xenograft tumors, each mouse was inoculated at the right flank with tumor cells in 100 μL of PBS and Matrigel matrix in the right hind flank with 1×10^7 cells. Mouse health was monitored daily, and caliper measurements began when tumors were palpable. Tumor volume measurements were determined utilizing the formula 0.5×L×W^2 in which L refers to length and W refers to width of each tumor. When tumors reached an average tumor volume of approximately 100-200 mm^3 for efficacy study and 300-500 mm^3 for single-dose PK/PD study, mice were randomized into treatment groups.
(§3) Mice were treated by oral gavage at 10 mg/kg with either vehicle consisting of DMSO: Solutol HS15: water=10:10:80 (% v/v/v) or compounds (Example 24, A122) in vehicle at indicated doses. For efficacy studies, animals were orally administered daily, tumor volumes and body weights were measured 3 times per week. Study day on efficacy plots indicates the day after which compound treatment was initiated. For single-dose PK/PD study, at the indicated time points after a single dose of Example 24 at the indicated dose levels, tumor samples were collected for PD analysis. RNA extraction and analysis of DUSP6 levels by in tumor tissue were performed as described in Example 134.

SHP-77 xenograft tumor = test: SHP-77 SCLC xenograft efficacy study; format: in vivo; settings: for mean tumor growth inhibition (TGI): daily 30 mg/kg p.o., 14 days treatment, SHP-77 xenograft
Source text: as §1, §2, §3

WT HRAS-BRAF complex = WT HRAS-BRAF complex (Homo sapiens (Human), UniProt P01112+P62937); test: WT HRAS-BRAF with CYPA interaction assay (TR-FRET); format: biochemical; settings: WT HRAS
Method: (§4) In this example, TR-FRET was used to measure the compound or compound-CYPA dependent disruption of the KRAS G12V-BRAF complex to assess inhibition efficacy. The IC50 ratio between WT KRAS/HRAS/NRAS and KRAS G12V mutant was calculated as selective index, which indicated tolerability and safety profile. Disruption of WT KRAS/HRAS/NRAS-BRAF complex by compounds was detected respectively. In assay buffer containing 25 mM HEPES (PH-7.4,4-(2-hydroxyethyl)-1-piperazineethanesulfonic acid, Thermo, 15630080), 0.002% Tween20, 0.1% BSA, 100 mM NaCl, 5 mM MgCl2, 10 μM GMPPNP (Guanosine 5′-[β,γ-imido]triphosphate trisodium salt hydrate, Sigma, G0635), tagless CYPA and GMPPNP loaded 6His-RAS proteins, and GST-BRAF^RBD were mixed in a well of a 384-well assay plate at final concentrations of 50 nM, 6.25 nM and 1 nM, respectively. Compound was present in plate wells as a 16-point 3-fold dilution series starting at a final concentration of 10 μM and incubated for 3 hours. A mixture of MAb Anti-6His-XL665 (Cisbio, 61HISXLB) and Mab anti-GST-TB cryptate (Cisbio, 61GSTTLB) was then added at a final concentration of 6.67 nM and 0.21 nM, respectively, and the plate was incubated for an additional 1.5 hours. TR-FRET signal was read on a PHERstar FSX microplate reader (Ex320 nm, Em 665/615 nm). Compounds that facilitate disruption of the RAS-BRAF complex were identified as those eliciting a decrease in the TR-FRET ratio relative to DMSO control wells.

WT NRAS-BRAF complex = WT NRAS-BRAF complex (Homo sapiens (Human), UniProt P01111+P62937); test: WT NRAS-BRAF with CYPA interaction assay (TR-FRET); format: biochemical; settings: WT NRAS
Method: as §4

NCI-H2122 (KRAS G12C) = test: Washout viability assay; format: cell-based; settings: for pIC50: Homo sapiens; for IC50 shift fold: washout vs no-washout
Method: (§5) Cancer cell lines NCI-H358, NCI-H2122, and SW480 (purchased from ATCC) were cultured in RPMI1640 (Thermo Fisher Scientific) medium plus 10% Fetal Bovine Serum (FBS, Thermo Fisher Scientific, 2.5 μg/mL puromycin and 1% Antibiotic-Antimycotic (Thermo Fisher Scientific) and plated at a density of 2,000 cells per well in 96-well assay plates (Corning-3699) and incubated overnight. On the assay day, compounds diluted to a final DMSO concentration of 0.5% were added to the wells. Following a 4-hour incubation period, the culture medium was removed, and the cells were washed three times with RPMI1640 medium only before being cultured in the abovementioned culture medium (RPMI1640+10% FBS+1% antibiotic-antimycotic). After 72 hours, a tenth of the volume of Cell Counting Kit-8 (Dojindo-CK04) was added to each well. The absorbance was measured (OD450 minus OD650) using an EnVision plate reader after a further 2-hour incubation. The IC50 values were calculated by applying a four-parameter sigmoidal concentration-response curve fit to the data.

NCI-H358 (KRAS G12C) = test: Washout viability assay; format: cell-based; settings: for pIC50: Homo sapiens; for IC50 shift fold: washout vs no-washout
Method: as §5

SW480 (KRAS G12V) = test: Washout viability assay; format: cell-based; settings: for pIC50: Homo sapiens; for IC50 shift fold: washout vs no-washout
Method: as §5

[1] = NCI-H2122 (KRAS G12C), 4-hour treatment, three washes, 72 hours, read-out: Washout IC50
[2] = NCI-H2122, KRAS (G12C), read-out: No-washout IC50
[3] = NCI-H358 (KRAS G12C), 4-hour treatment, three washes, 72 hours, read-out: Washout IC50
[4] = NCI-H358, KRAS (G12C), read-out: No-washout IC50
[5] = 4-hour treatment, three washes, 72 hours, read-out: Washout IC50

Chain of WT HRAS-BRAF complex (P01112 whole entry, looked up): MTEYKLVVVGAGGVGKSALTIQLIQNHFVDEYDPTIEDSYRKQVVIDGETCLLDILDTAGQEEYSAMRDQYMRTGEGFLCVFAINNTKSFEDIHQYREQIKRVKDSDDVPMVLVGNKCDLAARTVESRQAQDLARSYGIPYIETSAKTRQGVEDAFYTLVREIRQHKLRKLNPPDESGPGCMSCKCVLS
Chain of WT HRAS-BRAF complex (P62937 whole entry, looked up): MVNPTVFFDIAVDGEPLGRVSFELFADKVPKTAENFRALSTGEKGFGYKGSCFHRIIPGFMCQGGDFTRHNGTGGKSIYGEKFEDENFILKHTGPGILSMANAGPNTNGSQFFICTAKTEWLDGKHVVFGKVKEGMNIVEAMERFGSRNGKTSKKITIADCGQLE
Chain of WT NRAS-BRAF complex (P01111 whole entry, looked up): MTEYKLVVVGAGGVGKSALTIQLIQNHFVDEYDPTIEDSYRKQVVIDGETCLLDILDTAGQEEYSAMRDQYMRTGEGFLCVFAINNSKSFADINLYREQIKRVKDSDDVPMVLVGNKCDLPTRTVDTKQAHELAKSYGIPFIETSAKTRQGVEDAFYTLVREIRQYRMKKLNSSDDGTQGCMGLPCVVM
Chain of WT NRAS-BRAF complex (P62937 whole entry, looked up): as the sequence (P62937 whole entry, looked up) above

| SMILES | Hepatic clearance (Human) (human hepatocytes) | tumor DUSP6 levels remaining (DUSP6; 24 h) | tumor DUSP6 levels remaining (DUSP6; 48 hours) | tumor DUSP6 levels remaining (DUSP6; 72 hours) | mean tumor growth inhibition (TGI) (SHP-77 xenograft tumor) | tolerability based on body weights (SHP-77 xenograft tumor; daily administration at 30 mg/kg, SHP-77 xenograft mice) | pIC50 (WT HRAS-BRAF complex) | pIC50 (WT NRAS-BRAF complex) | pIC50 (NCI-H2122 (KRAS G12C); [1]) | pIC50 (NCI-H2122 (KRAS G12C); [2]) | IC50 shift fold (NCI-H2122 (KRAS G12C); NCI-H2122 (KRAS G12C)) | pIC50 (NCI-H358 (KRAS G12C); [3]) | pIC50 (NCI-H358 (KRAS G12C); [4]) | IC50 shift fold (NCI-H358 (KRAS G12C); NCI-H358 (KRAS G12C)) | pIC50 (SW480 (KRAS G12V); [5]) | pIC50 (SW480 (KRAS G12V); read-out: No-washout IC50) | IC50 shift fold (SW480 (KRAS G12V)) |
| --- | --- | --- | --- | --- | --- | --- | --- | --- | --- | --- | --- | --- | --- | --- | --- | --- | --- |
| CO[C@@H](C)c1ncc(N2CCN(C)CC2)cc1-c1c2c3cc(cc4c3n1CCC4)-c1csc(n1)C[C@H](NC(=O)[C@H]1[C@H](C)[C@@H]1C)C(=O)N1CCC[C@H](N1)C(=O)OCC(C)(C)C2 (atropisomer, axis not shown; (M)) [Example 24, (1r,2R,3S)-N-[(7S,13S)-(20M)-20-[2-[(1S)-1-methoxyethyl]-5-(4-methylpiperazin-1-yl)-3-pyridyl]-17,17-dimethyl-8,14-dioxo-15-oxa-4-thia-9,21,30,31-tetrazahexacyclo[23.3.1.1^2,5.1^9,13.0^19,27.0^21,26]hentriaconta-1 (28),2,5 (31), 19,25 (29),26-hexaen-7-yl]-2,3-dimethyl-cyclopropanecarboxamide] | 3.4 mL/min/kg | 3.9% | 31% | 73.7% | 70% | well-tolerated | 7.42 | 7.46 | 8.05 | 8.17 | 1.3 fold | 8.23 | 9.00 | 5.6 fold | 8.08 | 8.89 | 6.7 fold |
| CCn1c(-c2cc(N3CCN(C)CC3)cnc2[C@H](C)OC)c2c3cc(ccc31)-c1csc(n1)C[C@H](NC(=O)[C@H]1C[C@@H]1C)C(=O)N1CCC[C@H](N1)C(=O)OCC(C)(C)O2 [Example A122, reference compound] | 9 mL/min/kg | 4.3% | 67% | 126% | 43% |  | 8.00 | 8.00 | 7.54 | 8.10 | 3.6 fold | 7.49 | 8.70 | 16.2 fold | 7.33 | 8.62 | 19.7 fold |
